Results reported in PubChem BioAssay AID248 (DTP/NCI, 2004).
“And” between values parts separate entries of the source, which are not always exact repeats. Equal entries are not always repeated. Toxic doses and inconclusive results are not listed. Cut-off read from the data, not from the text of the source: active = T/C of 150% or more; inactive = T/C below 125%.

System: L1210 leukemia ip in BDF1 mice, survival T/C
Experiment: NCI In Vivo Anticancer Drug Screen. Data for tumor model L1210 Leukemia (intraperitoneal) in B6D2F1 (BDF1) mice
Conditions: endpoint: mean survival time, higher = longer survival
In short: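 Survival endpoint. Drug-treated group vs vehicle group, expressed as T divided by C. Tumor passaged by transplantation.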

[1] = dose: 100.0 mg/kg/injection, schedule: Q01DX009 (ip), vehicle: Klucel (hydroxypropylcellulose) (HPC)
[2] = dose: 200.0 mg/kg/injection, schedule: Q01DX009 (ip), vehicle: Klucel (hydroxypropylcellulose) (HPC)
[3] = dose: 50.0 mg/kg/injection, schedule: Q04DX003 (ip), vehicle: Klucel (hydroxypropylcellulose) (HPC)
[4] = dose: 100.0 mg/kg/injection, schedule: Q01DX001 (ip), vehicle: saline
[5] = dose: 200.0 mg/kg/injection, schedule: Q01DX001 (ip), vehicle: saline
[6] = dose: 100.0 mg/kg/injection, schedule: Q04DX003 (ip), vehicle: saline
[7] = dose: 200.0 mg/kg/injection, schedule: Q04DX003 (ip), vehicle: saline
[8] = dose: 100.0 mg/kg/injection, schedule: Q04DX003 (ip), vehicle: Klucel (hydroxypropylcellulose) (HPC)
[9] = dose: 200.0 mg/kg/injection, schedule: Q04DX003 (ip), vehicle: Klucel (hydroxypropylcellulose) (HPC)
[10] = dose: 400.0 mg/kg/injection, schedule: Q01DX009 (ip), vehicle: Klucel (hydroxypropylcellulose) (HPC)

Measured: T/C

O=C1CCC2c3ccccc3C(=O)C2C1 (stereo not drawn)
inactive: dose: 50.0 mg/kg/injection, schedule: Q01DX009 (ip), vehicle: Klucel (hydroxypropylcellulose) (HPC) 100 % of control | [1] 100 % of control | [2] 98 % of control

Cc1ccc(S(=O)(=O)OC2C(C3CSC(=O)O3)OC3OC(C)(C)OC32)cc1 (stereo not drawn)
inactive: dose: 25.0 mg/kg/injection, schedule: Q04DX002 (ip), vehicle: Klucel (hydroxypropylcellulose) (HPC) 103 % of control | dose: 50.0 mg/kg/injection, schedule: Q04DX002 (ip), vehicle: Klucel (hydroxypropylcellulose) (HPC) 100 % of control | dose: 100.0 mg/kg/injection, schedule: Q04DX002 (ip), vehicle: Klucel (hydroxypropylcellulose) (HPC) 97 % of control

C=CCc1cc(CNCCCOCC)c(O)c(OC)c1
inactive: dose: 12.5 mg/kg/injection, schedule: Q04DX003 (ip), vehicle: Klucel (hydroxypropylcellulose) (HPC) 97 % of control | dose: 25.0 mg/kg/injection, schedule: Q04DX003 (ip), vehicle: Klucel (hydroxypropylcellulose) (HPC) 95 % of control | [3] 92 % of control

CC(=O)Nc1ccc(S(=O)(=O)Nc2ccccc2C(F)(F)F)cc1
inactive: dose: 100.0 mg/kg/injection, schedule: Q01DX009 (ip), vehicle: saline with Tween-80 93 % of control | dose: 200.0 mg/kg/injection, schedule: Q01DX009 (ip), vehicle: saline with Tween-80 104 % of control | dose: 400.0 mg/kg/injection, schedule: Q01DX009 (ip), vehicle: saline with Tween-80 91 % of control

CC(C)(C#CC(C)(C)OC(=O)Nc1ccccc1)OC(=O)Nc1ccccc1
inactive: [4] 98 % of control | [5] 95 % of control | dose: 400.0 mg/kg/injection, schedule: Q01DX001 (ip), vehicle: saline 101 % of control

CCOC(=O)C[P+](c1ccc(OC)cc1)(c1ccc(OC)cc1)c1ccc(OC)cc1
inactive: dose: 30.0 mg/kg/injection, schedule: Q01DX001 (ip), vehicle: carboxymethylcellulose (CMC) 90 % of control

Nc1cc(Cl)ccc1NCCO
inactive: dose: 33.0 mg/kg/injection, schedule: Q01DX009 (ip), vehicle: saline 101 % of control | dose: 66.0 mg/kg/injection, schedule: Q01DX009 (ip), vehicle: saline 86 % of control | dose: 132.0 mg/kg/injection, schedule: Q01DX001 (ip), vehicle: saline 97 % of control and 111 % of control | dose: 132.0 mg/kg/injection, schedule: Q04DX003 (ip), vehicle: acetone 97 % of control | [5] 97 % of control and 105 % of control | dose: 300.0 mg/kg/injection, schedule: Q01DX001 (ip), vehicle: saline 100 % of control and 105 % of control

Cc1cccc2c(Nc3ccc(NS(C)(=O)=O)cc3)c3ccccc3nc12
inactive: dose: 2.5 mg/kg/injection, schedule: Q01DX009 (ip), vehicle: Klucel (hydroxypropylcellulose) (HPC) 115 % of control | dose: 5.0 mg/kg/injection, schedule: Q01DX009 (ip), vehicle: Klucel (hydroxypropylcellulose) (HPC) 115 % of control | dose: 10.0 mg/kg/injection, schedule: Q01DX009 (ip), vehicle: Klucel (hydroxypropylcellulose) (HPC) 117 % of control | dose: 10.0 mg/kg/injection, schedule: Q01DX009 (ip), vehicle: saline with Tween-80 120 % of control | dose: 10.0 mg/kg/injection, schedule: Q01DX009 (sc), vehicle: saline 112 % of control | dose: 20.0 mg/kg/injection, schedule: Q01DX001 (ip), vehicle: saline with Tween-80 121 % of control | dose: 20.0 mg/kg/injection, schedule: Q01DX009 (sc), vehicle: saline 110 % of control | dose: 40.0 mg/kg/injection, schedule: Q01DX001 (ip), vehicle: saline with Tween-80 117 % of control | dose: 40.0 mg/kg/injection, schedule: Q01DX009 (ip), vehicle: Klucel (hydroxypropylcellulose) (HPC) 103 % of control | dose: 40.0 mg/kg/injection, schedule: Q01DX009 (sc), vehicle: saline 113 % of control | dose: 80.0 mg/kg/injection, schedule: Q01DX009 (ip), vehicle: saline with Tween-80 116 % of control | [6] 123 % of control | dose: 400.0 mg/kg/injection, schedule: Q04DX003 (ip), vehicle: saline 94 % of control
active: dose: 20.0 mg/kg/injection, schedule: Q01DX009 (ip), vehicle: Klucel (hydroxypropylcellulose) (HPC) 224 % of control | dose: 20.0 mg/kg/injection, schedule: Q01DX009 (ip), vehicle: saline with Tween-80 166 % of control | dose: 40.0 mg/kg/injection, schedule: Q01DX009 (ip), vehicle: saline with Tween-80 178 % of control | dose: 40.0 mg/kg/injection, schedule: Q04DX003 (ip), vehicle: saline with Tween-80 159 % of control | dose: 80.0 mg/kg/injection, schedule: Q04DX003 (ip), vehicle: Klucel (hydroxypropylcellulose) (HPC) 164 % of control | dose: 80.0 mg/kg/injection, schedule: Q04DX003 (ip), vehicle: saline with Tween-80 151 % of control | dose: 160.0 mg/kg/injection, schedule: Q04DX003 (ip), vehicle: Klucel (hydroxypropylcellulose) (HPC) 206 % of control | dose: 160.0 mg/kg/injection, schedule: Q04DX003 (ip), vehicle: saline with Tween-80 168 % of control | [7] 167 % of control

NCOC(=O)Cc1ccc(Br)cc1
inactive: [1] 98 % of control | [8] 96 % of control | [2] 101 % of control | [9] 101 % of control | [10] 96 % of control | dose: 400.0 mg/kg/injection, schedule: Q04DX003 (ip), vehicle: Klucel (hydroxypropylcellulose) (HPC) 101 % of control

N#CC(C#N)C(=O)c1ccccc1
inactive: dose: 12.5 mg/kg/injection, schedule: Q01DX009 (ip), vehicle: saline with Tween-80 100 % of control | dose: 25.0 mg/kg/injection, schedule: Q01DX009 (ip), vehicle: saline with Tween-80 100 % of control | dose: 50.0 mg/kg/injection, schedule: Q01DX009 (ip), vehicle: saline with Tween-80 96 % of control | dose: 100.0 mg/kg/injection, schedule: Q04DX003 (ip), vehicle: saline with Tween-80 95 % of control | dose: 200.0 mg/kg/injection, schedule: Q04DX003 (ip), vehicle: saline with Tween-80 95 % of control | dose: 400.0 mg/kg/injection, schedule: Q04DX003 (ip), vehicle: saline with Tween-80 89 % of control

CC[N+](C)(C)c1ncnc2nc[nH]c12
inactive: dose: 50.0 mg/kg/injection, schedule: Q01DX009 (ip), vehicle: saline 103 % of control | dose: 50.0 mg/kg/injection, schedule: Q04DX003 (ip), vehicle: saline 95 % of control | [4] 106 % of control | dose: 100.0 mg/kg/injection, schedule: Q01DX009 (ip), vehicle: saline 110 % of control | [6] 100 % of control | [5] 111 % of control | [7] 96 % of control

COc1cc(N/C(N)=N\C(N)=NC(C)C)cc(OC)c1OC
inactive: dose: 50.0 mg/kg/injection, schedule: Q01DX009 (ip), vehicle: saline sonified 98 % of control | dose: 100.0 mg/kg/injection, schedule: Q01DX009 (ip), vehicle: saline sonified 101 % of control | [6] 104 % of control | dose: 200.0 mg/kg/injection, schedule: Q01DX009 (ip), vehicle: saline sonified 102 % of control | [7] 110 % of control

Cc1ccc(NC(=O)c2cc([N+](=O)[O-])cc([N+](=O)[O-])c2)cc1Cl
inactive: [1] 96 % of control | [2] 100 % of control | [10] 88 % of control

COC(=O)C1C2C=CC(C2=C(C)C)C1C(=O)OC (stereo not drawn)
inactive: [3] 100 % of control | dose: 100.0 mg/kg/injection, schedule: Q01DX001 (ip), vehicle: Klucel (hydroxypropylcellulose) (HPC) 92 % of control | [8] 98 % of control | dose: 200.0 mg/kg/injection, schedule: Q01DX001 (ip), vehicle: Klucel (hydroxypropylcellulose) (HPC) 96 % of control | [9] 94 % of control | dose: 400.0 mg/kg/injection, schedule: Q01DX001 (ip), vehicle: Klucel (hydroxypropylcellulose) (HPC) 91 % of control

CCCCCCCCCCCC(=O)[O][Sn]([CH2]c1ccccc1)([CH2]c1ccccc1)[CH2]c1ccccc1
inactive: dose: 0.5 mg/kg/injection, schedule: Q04DX003 (ip), vehicle: other 99 % of control | dose: 0.75 mg/kg/injection, schedule: Q01DX009 (ip), vehicle: other 97 % of control | dose: 1.0 mg/kg/injection, schedule: Q04DX003 (ip), vehicle: other 99 % of control | dose: 1.5 mg/kg/injection, schedule: Q01DX009 (ip), vehicle: other 94 % of control | dose: 3.0 mg/kg/injection, schedule: Q01DX009 (ip), vehicle: other 97 % of control | dose: 3.0 mg/kg/injection, schedule: Q04DX003 (ip), vehicle: other 100 % of control
